Assay results published in patent EP1295874A2, “Retroviral protease inhibiting compounds” (Abbott Laboratories, priority 1995, dated 1997).

Experiments:
Assay in all cases: microbe, parasite or virus in culture
Format in all cases: cell-based
[1] = system: Ritonavir-Resistant Mutant HIV Clones
[2] = system: Ritonavir-Resistant HIV from Patients
[3] = system: HIV Selected In Vitro by the Compound of Example 2B

For `CC(C)c1nc(CN(C)C(=O)N[C@H](C(=O)N[C@@H](Cc2ccccc2)C[C@H](O)[C@H](Cc2ccccc2)NC(=O)OCc2cncs2)C(C)C)cs1` [Ritonavir], which EC50 ([1]; Human immunodeficiency virus 1, HXB2, Virus Clone Wild Type (HXB2), 0% Human Serum) is on record?
The EC50 was 64 nM.

What about the EC50 ([1]; Human immunodeficiency virus 1, HXB2, Virus Clone Wild Type (HXB2), 50% Human Serum) of the same compound?
The EC50 was 1050 nM.

What about the EC50 ([1]; Human immunodeficiency virus 1, Virus Clone E35D, M36I, I54V, A71V, V82T, 0% Human Serum) of the same compound?
The EC50 was 1170 nM.

And the EC50 ([1]; Human immunodeficiency virus 1, Virus Clone E35D, M36I, I54V, A71V, V82T, 50% Human Serum)?
Its EC50 is 21900 nM.

And the EC50 ([1]; Human immunodeficiency virus 1, Virus Clone G48V, 0% Human Serum)?
The EC50 was 111 nM.

And the EC50 ([1]; Human immunodeficiency virus 1, Virus Clone G48V, 50% Human Serum)?
The EC50 was 1710 nM.

What about the EC50 ([1]; Human immunodeficiency virus 1, Virus Clone I54V, V82T, 0% Human Serum) of the same compound?
The EC50 was 613 nM.

And the EC50 ([1]; Human immunodeficiency virus 1, Virus Clone I54V, V82T, 50% Human Serum)?
The EC50 was 16700 nM.

And the EC50 ([1]; Human immunodeficiency virus 1, Virus Clone I84V, 0% Human Serum)?
The EC50 was 141 nM.

What about the EC50 ([1]; Human immunodeficiency virus 1, Virus Clone I84V, 50% Human Serum) of the same compound?
The EC50 was 2720 nM.

And the EC50 ([1]; Human immunodeficiency virus 1, Virus Clone K20R, E35D, M36I, I54V, A71V, V82T, 0% Human Serum)?
Its EC50 is 1420 nM.

And the EC50 ([1]; Human immunodeficiency virus 1, Virus Clone K20R, E35D, M36I, I54V, A71V, V82T, 50% Human Serum)?
The EC50 was 16000 nM.

And the EC50 ([1]; Human immunodeficiency virus 1, Virus Clone L90M, 0% Human Serum)?
Its EC50 is 93 nM.

And the EC50 ([1]; Human immunodeficiency virus 1, Virus Clone L90M, 50% Human Serum)?
The EC50 was 2280 nM.

What about the EC50 ([1]; Human immunodeficiency virus 1, Virus Clone V82A, 0% Human Serum) of the same compound?
The EC50 was 144 nM.

And the EC50 ([1]; Human immunodeficiency virus 1, Virus Clone V82A, 50% Human Serum)?
The EC50 was 4080 nM.

What about the EC50 ([1]; Human immunodeficiency virus 1, Virus Clone V82F, 0% Human Serum) of the same compound?
Its EC50 is 146 nM.

And the EC50 ([1]; Human immunodeficiency virus 1, Virus Clone V82F, 50% Human Serum)?
The EC50 was 3600 nM.

What about the EC50 ([1]; Human immunodeficiency virus 1, Virus Clone V82S, 0% Human Serum) of the same compound?
The EC50 was 304 nM.

What about the EC50 ([1]; Human immunodeficiency virus 1, Virus Clone V82S, 50% Human Serum) of the same compound?
Its EC50 is 9220 nM.

What about the EC50 ([1]; Human immunodeficiency virus 1, Virus Clone V82T, 0% Human Serum) of the same compound?
Its EC50 is 146 nM.

What about the EC50 ([1]; Human immunodeficiency virus 1, Virus Clone V82T, 50% Human Serum) of the same compound?
The EC50 was 5640 nM.

What about the EC50 ([1]; Human immunodeficiency virus 1, Virus Clone Wild Type (pNL4-3), 0% Human Serum) of the same compound?
The EC50 was 71 nM.

And the EC50 ([1]; Human immunodeficiency virus 1, Virus Clone Wild Type (pNL4-3), 50% Human Serum)?
The EC50 was 1400 nM.

And the EC50 ([2]; Human immunodeficiency virus 1, 24 h, Patient No. 313, Day 1, baseline)?
Its EC50 is 12 nM.

What about the EC50 ([2]; Human immunodeficiency virus 1, 24 h, Patient No. 410, Day 1, baseline) of the same compound?
Its EC50 is 29 nM.

And the EC50 ([2]; Human immunodeficiency virus 1, 504 h, Patient No. 104, Day 21, V82A)?
Its EC50 is 46 nM.

What about the EC50 ([2]; Human immunodeficiency virus 1, 672 h, Patient No. 104, Day 28, V82T) of the same compound?
The EC50 was 67 nM.

What about the EC50 ([2]; Human immunodeficiency virus 1, Patient No. 104, Day -1, baseline) of the same compound?
Its EC50 is 21 nM.

And the EC50 ([2]; Human immunodeficiency virus 1, Patient No. 129, Day 84, M36I, I54V, A71V, V82T)?
The EC50 was 203 nM.

What about the EC50 ([2]; Human immunodeficiency virus 1, Patient No. 129, Day 140, K20K/R, M36M/I, I54V, A71A/V, V82T) of the same compound?
The EC50 was 677 nM.

And the EC50 ([2]; Human immunodeficiency virus 1, Patient No. 129, Day -1, baseline)?
Its EC50 is 24 nM.

What about the EC50 ([2]; Human immunodeficiency virus 1, Patient No. 131, Day 88, M36I, 154V>I, V82A) of the same compound?
The EC50 was 163 nM.

And the EC50 ([2]; Human immunodeficiency virus 1, Patient No. 131, Day 200, K20K/R, M36I, I54I/V, V82A)?
Its EC50 is 731 nM.

And the EC50 ([2]; Human immunodeficiency virus 1, Patient No. 131, Day -28, baseline)?
The EC50 was 18 nM.

And the EC50 ([2]; Human immunodeficiency virus 1, Patient No. 224, Day 110, L33L/F, V82T/S)?
Its EC50 is 79 nM.

And the EC50 ([2]; Human immunodeficiency virus 1, Patient No. 224, Day 190, K20K/N/R, L33L/F, M36M/I, I54V/M, V82S)?
The EC50 was 496 nM.

And the EC50 ([2]; Human immunodeficiency virus 1, Patient No. 224, Day -6, baseline)?
Its EC50 is 29 nM.

What about the EC50 ([2]; Human immunodeficiency virus 1, Patient No. 235, Day 167, I54I/V, A71V, V82A. L90L/M) of the same compound?
Its EC50 is 66 nM.

And the EC50 ([2]; Human immunodeficiency virus 1, Patient No. 235, Day -1, baseline)?
The EC50 was 10 nM.

What about the EC50 ([2]; Human immunodeficiency virus 1, Patient No. 313, Day 57, M36M/I, V82F) of the same compound?
Its EC50 is 64 nM.

What about the EC50 ([2]; Human immunodeficiency virus 1, Patient No. 313, Day 85, M36M/I, I54I/V, V82S/F/A/T) of the same compound?
The EC50 was 274 nM.

And the EC50 ([2]; Human immunodeficiency virus 1, Patient No. 410, Day 57, M36M/I, I54I/V, V82A)?
Its EC50 is 341 nM.

And the EC50 ([2]; Human immunodeficiency virus 1, Patient No. 410, Day 85, M36I, I54V, V82A)?
Its EC50 is 545 nM.

And the EC50 ([3]; Human immunodeficiency virus 1, NL43, Virus NL4-3)?
The EC50 was 98 nM.

What about the EC50 ([3]; Human immunodeficiency virus 1, Virus P7) of the same compound?
The EC50 was 221 nM.

What about the EC50 ([3]; Human immunodeficiency virus 1, Virus P11) of the same compound?
The EC50 was 478 nM.

What about the EC50 ([3]; Human immunodeficiency virus 1, Virus P14) of the same compound?
Its EC50 is 1740 nM.

And the EC50 ([3]; Human immunodeficiency virus 1, Virus P17)?
The EC50 was 2090 nM.

And the “cross-resistance (fold)” value ([3]; passaged virus P14, P17)?
Its value is 18-20 fold.
